These results are taken from publication PMC7473772 (eLife, 2020).

Test [1] concerns the target TbAQP2/HAPT1 (Trypanosoma brucei brucei, UniProt Q6ZXT3). Description: cell-based. Format: cell-based.
Test [2] concerns T. b. brucei 2T1. In words: Drug sensitivity assay (resazurin). Format: cell-based. To be noted: Trypanosoma brucei. The protocol:
The tbaqp2/tbaqp3 null cells ([Baker et al., 2012]) and tbaqp1-2-3 null cells ([Jeacock et al., 2017]) (both obtained from David Horn, University of Dundee, UK) are derived from the 2T1 strain of T. b. brucei ([Alsford and Horn, 2008]). The CRK12 RNAi cell line^28 was obtained from Dr Tansy Hammarton (University of Glasgow, UK) and is also based on the 2T1 cell line; RNAi expression was induced with 1 µg/ml tetracycline in the medium. All experiments were performed with bloodstream form trypanosomes grown in vitro in HMI-11 medium as described ([Wallace et al., 2002]) at 37°C in a 5% CO2 atmosphere. Cultures were routinely maintained in 10 ml of this medium, being seeded at 5 × 10^4 cells/ml and passed to fresh medium at reaching approximately 3 × 10^6 cells/ml after 48 hr. For transport experiments 150 or 200 ml of culture was seeded at the same density in large flasks and incubated until the culture reached late-log phase.
Drug sensitivity assays for T. b. brucei bloodstream forms used the cell viability dye resazurin (Sigma) and were performed exactly as described ([Wallace et al., 2002]; [Bridges et al., 2007]) in 96-well plates with doubling dilutions of test compound, starting at 100 µM, over 2 rows of the plate (23 dilutions plus no-drug control). Incubation time with test compound was 48 hr (37°C/5% CO2), followed by an additional 24 hr in the presence of the dye.

In test [3] the test system is tbaqp2/tbaqp3 null cells. Description: microbe, parasite or virus in culture. Format: cell-based, Trypanosoma brucei brucei. Conditions: Trypanosoma brucei.
Test [4] concerns tbaqp2 null (AQP2-KO). Description: Drug sensitivity assay (resazurin). To be noted: Trypanosoma brucei. In kind it is cell-based.
In test [5] the test system is TbAQP2 expressed in tbaqp2 null. Description: Drug sensitivity assay (resazurin). Format: cell-based. Conditions: Trypanosoma brucei.
Test [6] concerns tbaqp1-2-3 null cells. In words: Drug sensitivity assay (resazurin), pentamidine and SHAM. In kind it is cell-based, Trypanosoma brucei brucei. Conditions: KO AQP1-3.
For test [7], the system named is tbaqp1-2-3 null cells expressing TbAQP2WT. Described as above. In kind it is cell-based, Trypanosoma brucei brucei. Conditions: +AQP2 W.T in KO AQP1-3.
Test [8] concerns tbaqp1-2-3 null cells expressing TbAQP2 position 84, 118 and 218 Trp and Met mutants. The test is described as above. Format: cell-based, Trypanosoma brucei brucei.
Test [9] concerns s427WT bloodstream forms. In kind it is cell-based, Trypanosoma brucei brucei. Conditions: for Effect of ionophore on pentamidine uptake: 25 nM [3H]-pentamidine, 1 mM adenosine, 3 min pre-incubation; for Inhibition of pentamidine transport: after preincubation; for 3H-penta: CCCP 20, gramicidin 10, Nigericin 20, NEM 1000.
For test [10], the system named is T. b. brucei s427WT cells. Format: cell-based, Trypanosoma brucei brucei.
For test [11], the system named is T. b. brucei s427 WT (bloodstream forms). In kind it is cell-based, Trypanosoma brucei brucei. Conditions: CCCP 20, gramicidin 10, Nigericin 20, NEM 1000; Control -95.4.
Setting [12] is: 48 h drug + 24 h resazurin, read-out: EC50 control 2T1 AVG.
Where [13] appears, read: read-out: EC50 AQP2-KO AVG, AQP2-KO / tbaqp2 null, 48 h drug + 24 h resazurin.
Setting [14] is: 3 repeats, read-out: EC50, MEAN.

Several values for one entry are separate records, joined by “and”; a condition that tells them apart may be missing. Identical values can stand only once. Like-named read-outs stand apart in the source and are kept apart here. Marks after values point to notes of the source that are not given here.

Sequence of TbAQP2/HAPT1 (Q6ZXT3 whole entry): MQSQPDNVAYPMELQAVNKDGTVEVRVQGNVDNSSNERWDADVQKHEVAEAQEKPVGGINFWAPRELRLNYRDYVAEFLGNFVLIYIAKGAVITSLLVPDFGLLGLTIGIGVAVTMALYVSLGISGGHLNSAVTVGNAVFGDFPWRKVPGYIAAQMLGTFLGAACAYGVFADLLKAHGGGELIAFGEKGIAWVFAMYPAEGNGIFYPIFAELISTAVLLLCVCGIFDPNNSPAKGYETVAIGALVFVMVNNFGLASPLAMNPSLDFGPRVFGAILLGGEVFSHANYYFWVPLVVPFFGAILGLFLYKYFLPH

`CC[n+]1c(-c2ccccc2)c2cc(N)ccc2c2ccc(N)cc21` [Ethidium] registered a ΔG0 in test [1] of -22.9 kJ/mol. Further, the “δ(ΔG0)” value in [1] stood at 19.7 kJ/mol. In addition, the Ki in [1] (Ki) was 97 µM. Further, the EC50 came out at 1320 nM in [2] (setting [12]), 1380 ± 140 nM in test [3], 1380 nM in [4] (setting [13]) and 1350 ± 110 nM in [5].
`CC[n+]1c(-c2ccccc2)c2cc(N/N=N/c3cccc(C(=N)N)c3)ccc2c2ccc(N)cc21` [Isometamidium] returned a ΔG0 in test [1] of -31.1 kJ/mol. Also, the “δ(ΔG0)” value in test [1] is reported as 11.4 kJ/mol. In addition, the inhibition constant Ki in test [1] (HAPT Ki, AVG) came out at 3.54 µM; in [1] (Ki), 3.5 µM. Also, the EC50 in test [2] (setting [12]) turned out to be 112 nM; in test [2] (read-out: EC50), 112 ± 12 nM; in test [3], 95 ± 12 nM; in test [4] (setting [13]) it was 103 nM; in test [4] (tbaqp2 null, read-out: EC50), 103 ± 14 nM; in [5], 98 ± 24 nM.
Consider `O=C(NO)c1ccccc1O` [SHAM], for which the EC50 in test [6] (setting [14]) was 7.9 µM; in test [6] (read-out: EC50, single repeats), 7.38 µM and 7.93 µM and 8.39 µM; in [7] (setting [14]), 18.6 µM; in test [7] (read-out: EC50, single repeats) it was 18.5 µM and 18.1 µM and 19.2 µM; in test [8] (+L84M in KO AQP1-3, 3 repeats, read-out: EC50, MEAN), 18.1 µM; in test [8] (+L84M in KO AQP1-3, read-out: EC50, single repeats) it was 17.6 µM and 17.7 µM and 19.1 µM. For the same compound, the EC50 is 13.2 µM in test [8] (+L84W in KO AQP1-3, 3 repeats, read-out: EC50, MEAN); 11.3 µM and 13.7 µM and 14.6 µM in test [8] (+L84W in KO AQP1-3, read-out: EC50, single repeats); 12.2 µM in test [8] (+L84W/L118W in KO AQP1-3, 3 repeats, read-out: EC50, MEAN); 11.7 µM and 12.3 µM and 12.6 µM in [8] (+L84W/L118W in KO AQP1-3, read-out: EC50, single repeats); 11.5 µM in [8] (+L118M in KO AQP1-3, 3 repeats, read-out: EC50, MEAN); 10.9 µM and 12.3 µM and 11.4 µM in test [8] (+L118M in KO AQP1-3, read-out: EC50, single repeats). Also, the EC50 in test [8] (+L118W in KO AQP1-3, 3 repeats, read-out: EC50, MEAN) was 10.8 µM; in test [8] (+L118W in KO AQP1-3, read-out: EC50, single repeats), 10.4 µM and 11.1 µM and 10.9 µM; in test [8] (+L218M in KO AQP1-3, 3 repeats, read-out: EC50, MEAN), 15.2 µM; in test [8] (+L218M in KO AQP1-3, read-out: EC50, single repeats), 15.8 µM and 12.7 µM and 17.1 µM; in test [8] (+L218W in KO AQP1-3, 3 repeats, read-out: EC50, MEAN), 15.9 µM; in test [8] (+L218W in KO AQP1-3, read-out: EC50, single repeats), 14.7 µM and 16.3 µM and 16.9 µM.
In the case of “carbonyl cyanide m-chlorophenyl hydrazone [CCCP]”, the “Effect of ionophore on pentamidine uptake” value in test [9] is “strongly inhibited”. The “Inhibition of pentamidine transport” value was ~ 63% in [9] (1 µM) and ~ 90% in test [9] (5 µM). For the same compound, the pentamidine uptake in [9] (CCCP 0.25, AVG) was 106.6 percentage of the uninhibited control; in test [9] (CCCP 0.25, single repeats), 101 percentage of the uninhibited control and 112.1 percentage of the uninhibited control; in [9] (CCCP 1, AVG), 36.9 percentage of the uninhibited control; in [9] (CCCP 1, single repeats), 34.6 percentage of the uninhibited control and 39.1 percentage of the uninhibited control; in test [9] (CCCP 5, AVG) it was 10.3 percentage of the uninhibited control; in [9] (CCCP 10, AVG) it was 4.3 percentage of the uninhibited control. Moreover, the pentamidine uptake in [9] (CCCP 20, AVG) was 5.0 percentage of the uninhibited control. Also, the 3H-penta in test [9] (Control = 100) is 4.97*. The “3H-penta, outlier” value in [9] (CCCP 20, repeated in the column outlier, Control = 100) amounted to 4.97. In test [10] (20 µM CCCP, pre-incubation 3 min, suramin accumulation over 10 min), the “Inhibition of [3H]-suramin uptake (endocytosis)” value is given as 32.6%. For the same compound, in [10] (+CCCP, 10 minutes), the “suramin accumulated, % of no CCCP control” value is listed as 67.3935 % of no CCCP control. Besides, in test [10] (+CCCP, Average of experiments), the “pmol suramin accumulated in 10 minutes (Average)” value is reported as 0.5894 pmol. For the same compound, the “pmol suramin accumulated in 10 minutes (AVG pmol)” value in [10] (+CCCP, single experiments) is 0.4589 pmol and 0.5929 pmol and 0.7163 pmol. Also, the PMF in test [11] is recorded as -45.6.
Take gramicidin: in [9], the “Effect of ionophore on pentamidine uptake” value is recorded as “strongly inhibited”. Moreover, in test [9] (Control = 100), the 3H-penta came out at 5.87. For the same compound, the pentamidine uptake in [9] (Gramicidin 1, AVG) was 23.3 percentage of the uninhibited control; in test [9] (Gramicidin 5, AVG), 3.7 percentage of the uninhibited control; in test [9] (Gramicidin 10, AVG), 5.9 percentage of the uninhibited control. Further, the PMF in [11] is on record as -13.1.
